Laboratory results taken from US8604030B2, “Fused piperidine compound and pharmaceutical containing same” (Kowa Company, Ltd., priority 2009, dated 2013).

What was measured:
[1] = system: Human hepatocellular carcinoma cell line HepG2; experiment: EPO production in HepG2 culture supernatant (ELISA), 48 hours at 4% oxygen; format: cell-based; settings: oxygen concentration 4%, 100% = EPO produced in non-stimulated state without compound; for activity at 10 µM: test compound 10 μM, read-out: % of Control (10 μM), produced amount of EPO; for activity at 3 µM: test compound 3 μM, read-out: % of Control (3 μM), produced amount of EPO
Description: Human hepatocellular carcinoma cell line HepG2 was inoculated in aliquots of 5×10^4 cells each into each of the wells of a 48-well plate using minimum essential medium (MEM, Sigma) containing 10% fetal bovine serum. On the following day, the medium was replaced with Dulbecco's Modified Eagle Medium (DMEM, Sigma) not containing phenol red but containing 10% fetal bovine serum followed by the addition of a test compound dissolved in DMSO to a final concentration of 3 μM or 10 and bringing to a final media volume of 400 μl per well. After incubating for 48 hours in a CO2 incubator having an oxygen concentration of 4%, the culture supernatant was recovered. The concentration of EPO in the culture supernatant was measured immediately using an ELISA kit (Roche Diagnostics). The procedure used complied with that described in the instructions.
The produced amount of EPO derived from each compound was determined based on a value of 100% for the amount of EPO produced in a non-stimulated state in the absence of addition of a compound (% of control).

[2] = system: Human proerythroblast cell line K562; experiment: Hemoglobin production in K562 cells (porphyrin ring fluorescence); format: cell-based; settings: 72 h, test compound 6 μM, 3 days + 3 days after medium replacement, 3×10^5 cells, 100% = hemoglobin produced in non-stimulated state without compound, read-out: % of Control (6 μM), amount of hemoglobin produced
Description: Human proerythroblast cell line K562 (acquired from ATCC) was inoculated in aliquots of 1×10^5 cells/mL into each of the wells of a 24-well plate using complete medium (RPMI-1640 medium containing 10% fetal bovine serum), followed by the addition of the test compounds at a final concentration of 6 μM and incubating for 3 days in a CO2 incubator (37° C., 5% CO2). Culturing was continued for an additional 3 days after replacing the medium. The cells were then collected and counted followed by unifying to a cell count of 3×10^5 cells and determining the amount of hemoglobin produced in the cells by measuring the fluorescence of the porphyrin ring. Namely, the cells collected by centrifugation were suspended in 500 μL of 2 M oxalic acid, and boiled for 30 minutes and allowed to cool, followed by measuring fluorescence intensity with a fluorescent microplate reader (Spectra MAX Gemini EM, MDC Japan, Inc.) ([…]). The amount of hemoglobin induced to be produced by each compound was determined based on a value of 100% for the amount of hemoglobin produced in a non-stimulated state in the absence of addition of a compound (% of control).

Row | Structure (SMILES) | activity at 10 µM [1] [%] | activity at 6 µM [2] [%] | activity at 3 µM [1] [%]
1 | CC(=O)N1c2cc3c(cc2C(Nc2ccc(Cl)cc2)CC1C)OCCO3 (centres unmarked) [Compound 11, 6-acetyl-9-[(4-chlorophenyl)amino]-7-methyl-2,3,6,7,8,9-hexahydro-[1,4]dioxano[2,3-g]quinoline] | 190 | 302 | –
2 | CC(=O)N1c2ccsc2C(Nc2ccc(Cl)cc2)CC1C (centres unmarked) [Compound 4, 1-(7-(4-chlorophenylamino)-5-methyl-6,7-dihydrothieno[3,2-b]pyridine-4(5H)-yl)ethanone] | – | 135 | 137
3 | CC(=O)N1c2cc3c(cc2[C@H](Nc2ccc(Cl)cc2)C[C@@H]1C)OCO3 (relative stereo) [Compound 10, cis-1-[8-(4-chlorophenylamino)-6-methyl-7,8-dihydro-[1,3]dioxolo[4,5-g]quinolin-5(6H)-yl]ethanone] | 191 | 520 | –
4 | CC(=O)N1c2ccc3[nH]cnc3c2C(Nc2ccc(Cl)cc2)CC1C (stereo not drawn) [Compound 8, Cis-1-acetyl-9-[(4-chlorophenyl)amino]-7-methyl-6,7,8,9-tetrahydro-1H-imiazo[4,5-f]quinoline] | 104 | 185 | –
5 | CC(=O)N1c2ccncc2[C@H](Nc2ccc(Cl)cc2)C[C@@H]1C (relative stereo) [Compound 2, cis-1-acetyl-4-[(4-chlorophenyl)amino]-2-methyl-3,4-dihydro-2H-[1,6]-naphthyridine] | – | 249 | 392
6 | CC(=O)N1c2cccnc2[C@H](Nc2ccc(Cl)cc2)C[C@@H]1C (relative stereo) [Compound 3, cis-1-acetyl-4-[(4-chlorophenyl)amino]-2-methyl-3,4-dihydro-2H-[1,5]-naphthyridine] | – | 105 | 153
7 | CC(=O)N1c2ccc3[nH]ccc3c2[C@H](Nc2ccc(Cl)cc2)C[C@@H]1C (relative stereo) [Compound 7, cis-6-acetyl-9-(4-chlorophenylamino)-7-methyl-6,7,8,9-tetrahydro-3H-pyrrolo[3,2-f]quinoline] | 137 | 436 | –
8 | CC(=O)N1c2cc3c(cc2C(Nc2ccc(Cl)cc2)CC1C)OCC(=O)N3 (stereo not drawn) [Compound 12, cis-6-acetyl-9-(4-chlorophenylamino)-7-methyl-6,7,8,9-tetrahydro-2H-[1,4]oxazino[2,3-g]quinolin-3-(4H)-one] | 103 | – | –
9 | CC(=O)N1c2ccc3oc(=O)ccc3c2[C@H](Nc2ccc(Cl)cc2)C[C@@H]1C (relative stereo) [Compound 9, cis-7-acetyl-10-(4-chlorophenylamino)-8-methyl-7,8,9,10-tetrahydro-3H-pyrano[3,2-f]-quinolin-3-one] | 116 | 166 | –
10 | CC(=O)N1c2ncccc2[C@H](Nc2ccc(Cl)cc2)C[C@@H]1C (relative stereo) [Compound 1, cis-1-acetyl-4-[(4-chlorophenyl)amino]-2-methyl-3,4-dihydro-2H-[1,8]-naphthyridine] | – | 197 | 416
11 | CC(=O)N1c2c(ccc3ccccc23)[C@H](Nc2ccc(Cl)cc2)C[C@@H]1C (relative stereo) [Compound 5, cis-1-acetyl-4-[(4-chlorophenyl)amino]-2-methyl-1,2,3,4-tetrahydro-benzo[h]quinoline] | 183 | – | –
